In US12329788B2, “Synbiotic compositions” (Evonik Operations GmbH, priority 2018, dated 2025):
Where a SMILES comes first, the peptide text is derived from it.

Key:
human gut microbiota = assay: lactate and short-chain fatty acid production in i-screen with human gut microbiota; format: cell-based; conditions: 24 h, amino acids 3.5 mM, dipeptides 7 mM
Source text: To determine the effect of the probiotic strains Bacillus subtilis DSM 32315, Bacillus subtilis DSM 32540, Bacillus licheniformis DSM 32314 and Bacillus amyloliquefaciens CECT 5940 on adult colonic microbiota, an intestinal screening model was used (i-screen, TNO, the Netherlands). Therefore the i-screen model was inoculated with standard human adult fecal microbiota material, which consisted of pooled fecal donations from 6 healthy adult volunteers (Caucasian, European lifestyle and nutrition). The fecal material was mixed and grown in a fed-batch fermenter for 40 hours to create a standardized microbiota as described previously. These standard adult gut microbiota sets were stored at −80° C. in 12% glycerol.
The intestinal microbiota was cultured in vitro in modified standard ileal efflux medium (SIEM), the composition of which was described by and modified as follows: 0.047 g/l pectin, 0.047 g/l xylan, 0.047 g/l arabinogalactan, 0.047 g/l amylopectin, 0.392 g/l starch, 24.0 g/l casein, 24.0 Bacto pepton, 0.4 ox-bile and 0.2 g/l cysteine. All components were supplied by Trititium Microbiology (Veldhoven, The Netherlands). The pH of the medium was adjusted to 5.8.
For the i-screen fermentations, the precultured standardized fecal inoculum was diluted 50 times in 1350 μl modified SIEM. All experiments have been carried out in triplicates. The strains Bacillus subtilis (DSM 32315), Bacillus subtilis DSM 32540, Bacillus licheniformis DSM 32314 and Bacillus amyloliquefaciens CECT 5940 were precultured separately in 50 ml LBKelly medium, for about 16 h. Incubation was done in shaking flasks at 37° C. under aerobic conditions. After incubation, bacterial density was determined by optical density measurement at 600 nm. A final stock solution of 1×10^10 cells/ml was prepared in 1 ml buffer solution (0.1 mM MES pH 6). The suspension of each strain was introduced into the i-screen to a final level of about 10^9 cells/ml, respectively
The i-screen incubation was performed under following gas conditions: 0.2% O2, 0.2% CO2, 10% H2, 89.6% N2.
The effect of the combination of different probiotic strains together with glutamine, or glutamine- or glutamic acid-containing dipeptides containing peptides on the n-butyrate production of the microbial community was analyzed for the strain B. subtilis (DSM 32315) as described in example 1 and 5. The single amino acids were added to a concentration of 3.5 mM and the dipeptides to a concentration of 7 mM.
The effects of the combination of different probiotic strains together with glutamine, or glutamine- or glutamic acid-containing dipeptides containing peptides on the n-butyrate production of the microbial community were analyzed for the strains B. licheniformis (DSM 32314) and B. amyloliquefaciens (CECT 5940) as described in example 1, 5, and 10. The single amino acids were added to a concentration of 3.5 mM and the dipeptides to a concentration of 7 mM.

colonic human microbiota = assay: i-screen intestinal screening model, microbiota composition by 16S rRNA V4 sequencing (whole community, Bacillus persistence); format: cell-based; conditions: for synergy on microbial community composition (higher increase of Clostridium XIVa, higher decrease of Clostridium XI than single additions): 24 h; for other genera relative abundance: 24 h SIEM, amino acids 3.5 mM; for other genera relative abundance / effect on the microbial community: dipeptides 7 mM; for effect on the microbial community: Example 8, amino acids 3.5 mM, 0% O2
Source text: To determine the effect of the probiotic strains Bacillus subtilis DSM 32315, Bacillus subtilis DSM 32540, Bacillus licheniformis DSM 32314 and Bacillus amyloliquefaciens CECT 5940 on adult colonic microbiota, an intestinal screening model was used (i-screen, TNO, the Netherlands). Therefore the i-screen model was inoculated with standard human adult fecal microbiota material, which consisted of pooled fecal donations from 6 healthy adult volunteers (Caucasian, European lifestyle and nutrition). The fecal material was mixed and grown in a fed-batch fermenter for 40 hours to create a standardized microbiota as described previously. These standard adult gut microbiota sets were stored at -80° C. in 12% glycerol. The intestinal microbiota was cultured in vitro in modified standard ileal efflux medium (SIEM), the composition of which was described by and modified as follows: 0.047 g/l pectin, 0.047 g/l xylan, 0.047 g/l arabinogalactan, 0.047 g/l amylopectin, 0.392 g/l starch, 24.0 g/l casein, 24.0 Bacto pepton, 0.4 ox-bile and 0.2 g/l cysteine. All components were supplied by Trititium Microbiology (Veldhoven, The Netherlands). The pH of the medium was adjusted to 5.8. For the i-screen fermentations, the precultured standardized fecal inoculum was diluted 50 times in 1350 μl modified SIEM. All experiments have been carried out in triplicates. The strains Bacillus subtilis (DSM 32315), Bacillus subtilis DSM 32540, Bacillus licheniformis DSM 32314 and Bacillus amyloliquefaciens CECT 5940 were precultured separately in 50 ml LBKelly medium, for about 16 h. Incubation was done in shaking flasks at 37° C. under aerobic conditions. After incubation, bacterial density was determined by optical density measurement at 600 nm. A final stock solution of 1×10^10 cells/ml was prepared in 1 ml buffer solution (0.1 mM MES pH 6). […] DNA extraction for the sequencing of 16S rRNA coding genes was performed as described by […] et al. (2013) with some minor modifications. Approximately 100 μl of the culture materials were added to the wells of a 96 well plate containing per well 300 μl of lysis buffer (Mag Mini DNA Isolation Kit, LGC ltd, UK), 500 μl zirconium beads (0.1 mm; BioSpec products, Bartlesville, OK, USA) and 500 μl of phenol saturated with Tris-HCI (pH 8.0; Carl Roth GMBH, Germany). The 96 well plate was placed in a Mini-BeadBeater-96 (BioSpec products, Bartlesville, Okla, USA) for 2 min at 2100 oscillations/min. DNA was subsequently purified using the Agowa Mag Mini DNA Isolation Kit according to the manufacturer recommendations. Extracted DNA was eluted in a final volume of 60 μl buffer. The microbiota composition was analyzed by 16S rRNA gene amplicon sequencing of the V4 Hypervariable Region. This was Achieved Through a Series of Steps: The amount of bacterial DNA in the i-screen DNA samples was determined by quantitative polymerase chain reaction (qPCR) using primers specific for the bacterial 16S rRNA gene: Subsequently, PCR amplicons of the V4 hypervariable region of the 16S rRNA gene were generated for the individual samples by amplification of […] of DNA as described by (2013), using […]/[…] primers. Primers included Illumina adapters and a unique 8-nt sample index sequence key. A mock control was included for technical quality control. […] The Library was quantified using the Quant-iTTM PicoGreen® dsDNA Assay Kit (Thermo Fisher Scientific). Paired-end sequencing of amplicons was conducted on the Illumina MiSeq platform (Illumina, Eindhoven, The Netherlands). The sequence data was processed with Mothur v.1.36.1 [26] in line with the mothur MiSeq SOP [24]. Before merging the read pairs, low quality regions were trimmed using Btrim with a sliding window size of 5 nt and average quality score of 25. After merging, the sequences were filtered by length while no ambiguous bases were allowed. […] Chimeric sequences were identified per sample using […] [28] in de novo mode and removed. […]

[1] = in combination with B. licheniformis (DSM 32314)
[2] = in combination with B. subtilis (DSM 32315)
[3] = in combination with B. amyloliquefaciens (CECT 5940)
[4] = microbiota + CECT 5940 (first group so headed, r13-r15)
[5] = microbiota + CECT 5940 (second group so headed, r16-r18)

Structure (SMILES)	synergy on n-butyrate concentration (human gut microbiota; [1])	synergy on n-butyrate concentration (human gut microbiota; [2])	synergy on microbial community composition (higher increase of Clostridium XIVa, higher decrease of Clostridium XI than single additions) (colonic human microbiota; [3])	synergy on microbial community composition (higher increase of Clostridium XIVa, higher decrease of Clostridium XI than single additions) (colonic human microbiota; [1])	synergy on microbial community composition (higher increase of Clostridium XIVa, higher decrease of Clostridium XI than single additions) (colonic human microbiota; [2])	other genera relative abundance (colonic human microbiota; [4])	other genera relative abundance (colonic human microbiota; [5])	other genera relative abundance (colonic human microbiota; microbiota + DSM 32315)	other genera relative abundance (colonic human microbiota; microbiota, no probiotic cells)	synergy on n-butyrate concentration (human gut microbiota; [3])	effect on the microbial community (colonic human microbiota)
NCC(=O)O.N[C@@H](CCC(=O)O)C(=O)O [Gly-Glu, Glycine-Glutamic acid]	Synergistic positive effects	Synergistic positive effects	synergistic effect	synergistic effect	synergistic effect	91%	90%	92%	95%		
NC(=O)CC[C@H](N)C(=O)O [Gln, glutamine, reference compound]		Synergistic positive effects	synergistic effect			79%	70%	74%	72%	Synergistic positive effects	no positive effect on the microbial community
C[C@H](N)C(=O)N[C@@H](CCC(N)=O)C(=O)O [Ala-Gln, Alanine-Glutamine] (H-Ala-Gln-OH)	Synergistic positive effects	Synergistic positive effects	synergistic effect	synergistic effect	synergistic effect	90%	94%	96%	98%		
N[C@@H](CCC(=O)O)C(=O)O [Glu, glutamic acid, reference compound]		Synergistic positive effects				73%	80%	72%	72%		no positive effect on the microbial community
CC(=O)N[C@@H](C)C(=O)N[C@@H](CCC(N)=O)C(=O)O [Ac-Ala-Gln] (Ac-Ala-Gln-OH)						78%	76%	67%	72%		
